Columns and labels:
Assay type in all cases: in vivo
[1] = system: A20 mouse B-cell lymphoma cell line; assay: A20 mouse syngeneic tumor model (Study 1)
Experimental: A20 Study 1: A20 is a mouse B-cell lymphoma cell line. A20 mouse syngeneic tumor model was generated by subcutaneous inoculation with 0.4×10^6 A20 cells (cell suspension) in approximately 9 weeks old female BALB/c mice (Vital River Laboratory Animal Technology Co., Ltd., Beijing, China) in the flank. When the mean tumor volume reached approximately 55 mm^3, the animals were randomized into one vehicle control and three treatment groups (n=10/group). Mice were then dosed with PBS or Compound No. 14 or anti-mouse PD-1 antibody or Compound No. 14 plus anti-mouse PD-1 antibody over a 31-day period. Tumor growth and body weight were measured twice per week during the treatment and post-treatment periods, and mice were humanely euthanized once they had reached their humane endpoint. […]
(§1) Tumors were measured twice weekly using vernier calipers. Tumor volumes were calculated using standard equation: V=W^2×L/2, where V=volume, W=width, and L=length for the tumor. […] Tumor size and body weight were measured twice a week for the duration of the study. […]
(§2) After the transformation, linear interpolation was used to estimate the time (in days) since randomization each mouse's tumor volume reaches 1000 mm^3. […] In case of a mouse's tumor having not reached 1000 mm^3 at the end of study, the last day the mouse was on study was recorded and right-censored. […]

[2] = system: L5178-R mouse lymphoma cell line; assay: L5178-R mouse syngeneic tumor model (Study 2); conditions: vs PBS, time-to-progression (tumor 1000 mm^3), Compound No. 14 0.25 mg/kg IV Day 0, 3, 6, anti-mPD-1 10 mg/kg IP Day 0, 3, 6
Experimental: L5178-R Study 2: L5178-R is a mouse lymphoma cell line. L5178-R mouse syngeneic tumor model was generated by subcutaneous inoculation with 0.2×10^6 L5178-R cells (cell suspension) in approximately 12 weeks old female DBA/2 mice (Vital River Laboratory Animal Technology Co., Ltd., Beijing, China) in the flank. When the mean tumor volume reached approximately 65 mm^3, the animals were randomized into one vehicle control and four treatment groups (n=10/group). Mice were then dosed with PBS or Compound No. 14 or anti-mouse PD-1 antibody or Compound No. 14 plus anti-mouse PD-1 antibody at 10 mg/kg (Q3D×3 & QW×3) over a 10-day period. Tumor growth and body weight were measured twice per week during the treatment and post-treatment periods, and mice were humanely euthanized once they had reached their humane endpoint. […]
as §1, §2

[3] = system: WEHI-3 mouse myelomonocytic leukemia cell line; assay: WEHI-3 mouse syngeneic tumor model (Study 3); conditions: WEHI3 model; vs PBS; time-to-progression (tumor 1000 mm^3); Compound No. 14 0.25 mg/kg IV Day 0, 3, 6; anti-mPD-1 10 mg/kg IP Day 0, 3, 6, 13
Experimental: WEHI-3 Study 3: WEHI-3 is a mouse myelomonocytic leukemia cell line. WEHI-3 mouse syngeneic tumor model was generated by subcutaneous inoculation with 0.1×10^6 WEHI-3 cells (cell suspension) in approximately 11 weeks old female BALB/c mice (Vital River Laboratory Animal Technology Co., Ltd., Beijing, China) in the flank. When the mean tumor volume reached approximately 60 mm^3, the animals were randomized into one vehicle control and four treatment groups (n=10/group). Mice were then dosed with PBS or Compound No. 14 or anti-mouse PD-1 antibody or Compound No. 14 plus anti-mouse PD-1 antibody over a 21-day period. Tumor growth and body weight were measured twice per week during the treatment and post-treatment periods, and mice were humanely euthanized once they had reached their humane endpoint. […]
as §1, §2

[4] = system: RM-1 mouse prostate carcinoma cell line; assay: RM-1 mouse syngeneic tumor model (Study 4); conditions: RM-1 model; vs PBS; time-to-progression (tumor 1000 mm^3); Compound No. 14 0.25 mg/kg IV Day 0, 3, 6; anti-mPD-1 10 mg/kg IP Day 0, 3, 6, 13
Experimental: RM-1 Study 4: RM-1 is a mouse prostate carcinoma cell line. RM-1 mouse syngeneic tumor model was generated by subcutaneous inoculation with 0.8×10^6 RM-1 cells (cell suspension) in 10 weeks old female C57BL/6 mice (Vital River Laboratory Animal Technology Co., Ltd., Beijing, China) in the flank. When the mean tumor volume reached approximately 60 mm^3, the animals were randomized into one vehicle control and four treatment groups (n=10/group). Mice were then dosed with PBS or Compound No. 14 or anti-mouse PD-1 antibody or Compound No. 14 plus anti-mouse PD-1 antibody over a 19-day period. Tumor growth and body weight were measured twice per week during the treatment and post-treatment periods, and mice were humanely euthanized once they had reached their humane endpoint. […]
as §1, §2

[5] = system: L1210 mouse leukemia cell line; assay: L1210 mouse syngeneic tumor model (Study 5); conditions: vs PBS, time-to-progression (tumor 1000 mm^3), Compound No. 14 0.25 mg/kg IV Day 0, 3, 6, anti-mPD-1 10 mg/kg IP Day 0, 3, 6, 13
Experimental: L1210 Study 5: L1210 is a mouse leukemia cell line. L1210 mouse syngeneic tumor model was generated by subcutaneous inoculation with 0.02×10^6 L1210 cells (cell suspension) in approximately 11 weeks old female DBA/2 mice (Vital River Laboratory Animal Technology Co., Ltd., Beijing, China) in the flank. When the mean tumor volume reached approximately 50 mm^3, the animals were randomized into one vehicle control and four treatment groups (n=10/group). Mice were then dosed with PBS or Compound No. 14 or anti-mouse PD-1 antibody or Compound No. 14 plus anti-mouse PD-1 antibody over a 15-day period. Tumor growth and body weight were measured twice per week during the treatment and post-treatment periods, and mice were humanely euthanized once they had reached their humane endpoint. […]
as §1, §2

Q: How did the “HR (Weibull)” value ([1]; A20 model, vs PBS, time-to-progression (tumor 1000 mm^3), Compound No. 14 0.25 mg/kg IV Day 0, 3, 6, anti-mPD-1 10 mg/kg IP Day 0, 3, 6, 13, 20, 27) turn out when `Nc1ncnc2c1ncn2[C@@H]1O[C@@H]2COP(=O)(S)O[C@@H]3[C@H](O)[C@@H](COP(=O)(S)O[C@H]2[C@H]1F)O[C@H]3n1cc(F)c2c(=O)[nH]cnc21` (stereo partly drawn) [Compound No. 14] was run?
A: 0.104

Q: What about the complete responses ([1]; A20 study, 31 days, n=10/group) of the same compound?
A: one

Q: And the “HR (Weibull)” value [2]?
A: 0.544

Q: What about the “HR (Weibull)” value [3] of the same compound?
A: 0.0487

Q: What about the “HR (Weibull)” value [4] of the same compound?
A: 0.425

Q: What about the “HR (Weibull)” value [5] of the same compound?
A: 0.118

Reference: patent US12403154B2, “Administration of sting agonist and checkpoint inhibitors” (Takeda Pharmaceutical Company Limited, priority 2019, dated 2025)
